Structures are written as SMILES. Active and inactive are the calls of the source. The calls are words filed in the database; no cut-off is given here.

By IC50 is commonly meant the concentration that gives 50% inhibition.

Data set [1] has as its system B16-F10. As to the kind of experiment: Antiproliferative activity against mouse B16F10 cells at 10 to 100 uM incubated for 48 hrs by MTT assay. It counts as functional, cell-based.
The subject of data set [2] is HeLa. As to the kind of experiment: Antiproliferative activity against human HeLa cells at 10 to 100 uM incubated for 48 hrs by MTT assay. It counts as functional, cell-based. Background: Formazan colour is commonly taken as a measure of viable cells.
Data set [3] has as its system A549. Description: Antiproliferative activity against human A549 cells at 10 to 100 uM incubated for 48 hrs by MTT assay. It counts as functional, cell-based.
Data set [4] deals with B16-F10. As to the kind of experiment: Antiproliferative activity against mouse B16F10 cells incubated for 48 hrs by MTT assay. It counts as functional, cell-based. Conditions: B16-F10, 48 h.
Data set [5] in a line: Selectivity index, ratio of IC50 for cytotoxicity in HEK293 cells assessed as reduction in cell viability incubated for 48 hrs by MTT assay to IC50 for antiproliferative activity against mouse B16F10 cells incubated for 48 hrs by MTT assay. It counts as toxicity, cell-based. Conditions: read-out: Ratio IC50.
Data set [6] can be described thus: Selectivity index, ratio of IC50 for cytotoxicity in HEK293 cells assessed as reduction in cell viability incubated for 48 hrs by MTT assay to IC50 for antiproliferative activity against human A549 cells incubated for 48 hrs by MTT assay. It counts as toxicity, cell-based. Conditions: read-out: Ratio IC50.
Data set [7] is described as follows: Selectivity index, ratio of IC50 for cytotoxicity in HEK293 cells assessed as reduction in cell viability incubated for 48 hrs by MTT assay to IC50 for antiproliferative activity against human HeLa cells incubated for 48 hrs by MTT assay. It counts as toxicity, cell-based. Conditions: read-out: Ratio IC50.
Data set [8] relates to HEK293. As to the kind of experiment: Cytotoxicity in HEK293 cells assessed as reduction in cel viability incubated for 48 hrs by MTT assay. It counts as cell-based. Conditions: Homo sapiens, HEK293, 48 h.
Data set [9] deals with A549. As to the kind of experiment: Antiproliferative activity against human A549 cells incubated for 48 hrs by MTT assay. Conditions: A549, 48 h. It counts as functional, cell-based.
For data set [10], the system named is HeLa. Description: Antiproliferative activity against human HeLa cells incubated for 48 hrs by MTT assay. It counts as functional, cell-based.

Take `COc1ccc(S(=O)(=O)N2CC=C(c3ccc4nc(-c5ccc(OC)c(OC)c5)cn4c3)CC2)cc1`: the outcome in [1], in [2] and in data set [3] was Active.

On to `COc1ccc(-c2cn3cc(C4=CCN(S(=O)(=O)c5ccc(C(C)=O)cc5)CC4)ccc3n2)cc1OC`, for which the result in [1], in [2] and in [3] was Active.

Take `COc1ccc(-c2cn3cc(C4=CCN(S(=O)(=O)C(F)(F)F)CC4)ccc3n2)cc1OC`: the result in [1], in data set [2] and in data set [3] was Active.

For the compound `COc1ccc(-c2cn3cc(C4=CCN(S(=O)(=O)c5ccccc5[N+](=O)[O-])CC4)ccc3n2)cc1OC`, the outcome in data set [1], in data set [2] and in data set [3] was Active.

As for `COc1ccc(-c2cn3cc(C4=CCN(S(=O)(=O)c5ccc(F)cc5)CC4)ccc3n2)cc1OC`, the outcome in data set [1], in data set [2] and in [3] was Active.

In the case of `CCS(=O)(=O)N1CC=C(c2ccc3nc(-c4ccc(OC)c(OC)c4)cn3c2)CC1`, the result in [1], in data set [2] and in data set [3] was Active.

As for `CCCS(=O)(=O)N1CC=C(c2ccc3nc(-c4ccc(OC)c(OC)c4)cn3c2)CC1`, the result in data set [1], in [2] and in [3] was Active.

For the compound `COc1ccc(-c2cn3cc(C4=CCN(C(=O)c5ccccc5C(F)(F)F)CC4)ccc3n2)cc1OC`, the IC50 in data set [4] came to 8.11 µM; in [8], 82.9 µM; in data set [9], 2.55 µM; in [10], 7.95 µM. The selectivity ratio at 48 h in data set [5], in [6] and in data set [7] was 10 to 14 each time. For the same compound, the result in data set [1], in [2] and in data set [3] was Active.

Regarding `COc1ccc(-c2cn3cc(C4=CCN(S(=O)(=O)CC(C)C)CC4)ccc3n2)cc1OC`, the outcome in [1], in [2] and in data set [3] was Active.

Consider `COc1ccc(-c2cn3cc(C4=CCN(C(=O)c5ccc(F)cc5F)CC4)ccc3n2)cc1OC`, for which the result in data set [1], in data set [2] and in data set [3] was Active.

For `COc1ccc(-c2cn3cc(C4=CCN(C(=O)c5cccc(F)c5)CC4)ccc3n2)cc1OC`, the outcome in data set [1], in data set [2] and in data set [3] was Active.

For the compound `COc1ccc(-c2cn3cc(C4=CCN(C(=O)C5CCCCC5)CC4)ccc3n2)cc1OC`, the IC50 came out at 10.9 µM in data set [4], 72.1 µM in data set [8], 7.31 µM in data set [9] and 8.06 µM in [10]. Also, the selectivity ratio at 48 h in [5], in data set [6] and in data set [7] was 10 to 14 in each case. For the same compound, the outcome in data set [1], in data set [2] and in [3] was Active.

On to `COc1ccc(-c2cn3cc(C4=CCNCC4)ccc3n2)cc1OC`, for which the result in data set [1], in [2] and in data set [3] was Active.

Consider `COc1ccc(-c2cn3cc(C4=CCN(C(=O)c5cccs5)CC4)ccc3n2)cc1OC`, for which the IC50 in data set [4] was 19.5 µM; in data set [8], 98.1 µM; in data set [9] it was 5.2 µM; in data set [10], 16 µM. The selectivity ratio at 48 h in [5], in data set [6] and in [7] was 10 to 14 throughout. For the same compound, the outcome in data set [1], in data set [2] and in data set [3] was Active.

With `COc1ccc(-c2cn3cc(C4=CCN(C(=O)c5ccccn5)CC4)ccc3n2)cc1OC`, the result in data set [1], in data set [2] and in data set [3] was Active.

In the case of `Nc1ccccc1NC(=O)c1cnccn1`, the IC50 in [4] amounted to 34.6 µM; in data set [9], 29.1 µM; in data set [10], 28.3 µM.

With `COc1ccc(-c2cn3cc(C4=CCN(C(=O)C5CC5)CC4)ccc3n2)cc1OC`, the IC50 in data set [4] was 19.4 µM; in data set [8], 77.5 µM; in [9] it was 9.14 µM; in data set [10], 15.8 µM. In addition, the selectivity ratio at 48 h in data set [5], in [6] and in [7] was 10 to 14 throughout. Besides, the outcome in [1], in data set [2] and in data set [3] was Active.

`COc1ccc(-c2cn3cc(C4=CCN(C(=O)N(C)C)CC4)ccc3n2)cc1OC`: the result in data set [1], in [2] and in [3] was Active.

As for `COc1ccc(-c2cn3cc(C4=CCN(C(=O)c5ccccc5F)CC4)ccc3n2)cc1OC`, the outcome in data set [1], in data set [2] and in data set [3] was Active.

For the compound `COc1ccc(-c2cn3cc(C4=CCN(S(=O)(=O)c5ccc(Br)s5)CC4)ccc3n2)cc1OC`, the outcome in [1], in data set [2] and in data set [3] was Active.

Regarding `COc1ccc(-c2cn3cc(C4=CCN(S(=O)(=O)c5ccc(C(C)(C)C)cc5)CC4)ccc3n2)cc1OC`, the outcome in data set [1], in data set [2] and in data set [3] was Active.

Consider `C=CC(=O)N1CC=C(c2ccc3nc(-c4ccc(OC)c(OC)c4)cn3c2)CC1`, for which the outcome in [1], in [2] and in data set [3] was Active.

As to `COc1ccc(-c2cn3cc(C4=CCN(C(=O)COCc5ccccc5)CC4)ccc3n2)cc1OC`, the result in [1], in [2] and in [3] was Active.

Take `COc1ccc(-c2cn3cc(C4=CCN(S(=O)(=O)c5ccccc5)CC4)ccc3n2)cc1OC`: the half-maximal inhibitory concentration (IC50) in data set [4] is 13.2 µM; in [8], 65.6 µM; in [9], 7.66 µM; in data set [10], 12.6 µM. Besides, the selectivity ratio at 48 h in [5], in [6] and in data set [7] was 10 to 14 throughout. The result in [1], in [2] and in [3] was Active.

Take `COc1ccc(-c2cn3cc(C4=CCN(S(=O)(=O)c5ccc(Cl)cc5)CC4)ccc3n2)cc1OC`: the result in data set [1], in data set [2] and in data set [3] was Active.

Turning to `COc1ccc(-c2cn3cc(C4=CCN(C(C)=O)CC4)ccc3n2)cc1OC`, the outcome in data set [1], in data set [2] and in [3] was Active.

For the compound `COc1ccc(-c2cn3cc(C4=CCN(S(=O)(=O)c5ccc(Br)cc5)CC4)ccc3n2)cc1OC`, the outcome in [1], in [2] and in data set [3] was Active.

Consider `COc1ccc(-c2cn3cc(C4=CCN(S(=O)(=O)c5ccc(C)cc5)CC4)ccc3n2)cc1OC`, for which the outcome in [1], in data set [2] and in data set [3] was Active.

Consider `COc1ccc(-c2cn3cc(C4=CCN(C(=O)C(F)(F)F)CC4)ccc3n2)cc1OC`, for which the result in data set [1], in data set [2] and in [3] was Active.

As to `COc1ccc(-c2cn3cc(C4=CCN(S(=O)(=O)C5CC5)CC4)ccc3n2)cc1OC`, the result in data set [1], in data set [2] and in [3] was Active.

With `COc1ccc(-c2cn3cc(C4=CCN(C(=O)c5ccc(F)cc5)CC4)ccc3n2)cc1OC`, the result in [1], in data set [2] and in data set [3] was Active.

In the case of `COc1ccc(-c2cn3cc(C4=CCN(S(=O)(=O)c5ccc(C(F)(F)F)cc5)CC4)ccc3n2)cc1OC`, the result in data set [1], in data set [2] and in [3] was Active.

Regarding `COc1ccc(-c2cn3cc(C4=CCN(S(=O)(=O)c5ccc([N+](=O)[O-])cc5)CC4)ccc3n2)cc1OC`, the outcome in data set [1], in data set [2] and in [3] was Active.

For `COc1ccc(-c2cn3cc(C4=CCN(S(=O)(=O)c5ccc(Cl)s5)CC4)ccc3n2)cc1OC`, the outcome in data set [1], in data set [2] and in data set [3] was Active.

With `COc1ccc(-c2cn3cc(C4=CCN(C(=O)c5ccco5)CC4)ccc3n2)cc1OC`, the result in data set [1], in data set [2] and in data set [3] was Active.

As for `COc1ccc(-c2cn3cc(C4=CCN(C(=O)c5cocn5)CC4)ccc3n2)cc1OC`, the outcome in data set [1], in data set [2] and in data set [3] was Active.

For the origin of these results see ChEMBL document CHEMBL4385672, “Design, synthesis and biological evaluation of 2-(3,4-dimethoxyphenyl)-6 (1,2,3,6-tetrahydropyridin-4-yl)imidazo[1,2-a]pyridine analogues as antiproliferative agents” (Bioorg Med Chem Lett, 2019).
